Assay results published in US6291678A, “Process for the preparation of chiral keto-heterocycles of basic amino acids” (Warner-Lambert Company, priority 1998, dated 2001).
pIC50: −log10 of the molar value.

How the values were obtained:
trypsin = target: T1, trypsin (Bos taurus, UniProt P00760); experiment: Trypsin inhibitory activity (chromogenic substrate S2222); format: biochemical; conditions: protocol similar to thrombin
T1 sequence (P00760 24-246): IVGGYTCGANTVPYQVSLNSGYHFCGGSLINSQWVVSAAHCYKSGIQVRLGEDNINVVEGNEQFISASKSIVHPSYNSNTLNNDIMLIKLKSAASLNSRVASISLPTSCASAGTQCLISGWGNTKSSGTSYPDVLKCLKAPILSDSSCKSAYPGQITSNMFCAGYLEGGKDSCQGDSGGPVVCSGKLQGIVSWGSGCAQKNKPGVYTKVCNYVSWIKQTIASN
Method: The ability of compounds to act as inhibitors of thrombin catalytic activity is assessed by determination of that concentration of test substance that inhibits by 50% (IC50) the ability of thrombin to cleave the chromogenic substrate S-2238 (H-D-Phe-L-Pip-L-Arg-p-nitroanilide.2 HCl). Typically thrombin in 10 mM HEPES, 100 mM NaCl, 0.05% BSA, and 0.1% PEG-8000 and the test substance in DMSO are incubated for 60 minutes at room temperature. To this mixture is added S-2238 and the velocity of S-2238 hydrolysis measured by observing the intensity of absorbance at 405 nm over 5 minutes.
A similar protocol is followed to access the trypsin inhibitory activity of the test substances, except thrombin is replaced by trypsin and the chromogenic substrate is S2222 (N-Bz-L-Ile-L-Glu-L-Gly-L-Arg-p-nitroanilide.HCl).

rat carotid artery = experiment: Rat arterial model of thrombosis (FeCl3 injury of the carotid artery), markers of anticoagulant activity in vivo; conditions: for Fold Shift in aPTT: activated partial thromboplastin time at 30 minute time point, control aPTT 15 s; for Fold Shift in aPTT / Fold Shift in TT: loading dose 0.75 mg/kg plus infusion of 50 μg/kg/min; for Fold Shift in MOT: mean occlusion time, loading dose 0.75 mg/kg plus continual infusion of 50 μg/kg/min, control MOT 20 minutes; for Fold Shift in TT: thrombin time at 30 minute time point, control TT 30 s
Method: The ability of compounds to affect markers of anticoagulant activity in vivo were assessed in a rat arterial model of thrombosis. This model requires injury of the rat carotid artery by the application of a FeCl3 solution. Typically test substances are administered by applying a loading dose of 0.75 mg/kg plus continual infusion of 50 μg/kg/min.
The fold shift in aPTT and TT are measured at a 30 minute time point.

thrombin = thrombin (Homo sapiens, UniProt P00734); experiment: Inhibition of thrombin catalytic activity (cleavage of chromogenic substrate S-2238); format: biochemical; conditions: S-2238 substrate; 60 minutes incubation at room temperature; absorbance at 405 nm over 5 minutes
Method: Typically thrombin in 10 mM HEPES, 100 mM NaCl, 0.05% BSA, and 0.1% PEG-8000 and the test substance in DMSO are incubated for 60 minutes at room temperature.

| pIC50 (trypsin) | pIC50 (thrombin) | SMILES | Fold Shift in aPTT (rat carotid artery) | Fold Shift in MOT (rat carotid artery) | Fold Shift in TT (rat carotid artery) |
| --- | --- | --- | --- | --- | --- |
| 9.00 | 8.30 | N=C(N)NCCC[C@H](NC(=O)[C@@H]1CC[C@H]2CN(C(=O)CCc3ccccc3)CC(=O)N21)C(=O)c1nccs1 [A] | 3.2 | 2.4 | 13 |
| 5.36 | 7.52 | N=C(N)N1CCC[C@@H](C[C@H](NC(=O)[C@@H]2CC[C@H]3CN(C(=O)CCc4ccccc4)CC(=O)N32)C(=O)c2nccs2)C1 [B] | 3.1 | > 3 | 15 |
